# Experiments:
# Assay type in all cases: in vivo, mouse
# mice = assay: Response to noxious heat (metal probe heated to 58° C. applied to paw, paw withdrawal latency)
# Description: Pain Models—Responses to noxious heat were assessed by applying a metal probe heated to 58° C. to a forelimb paw, while holding the animal. Paw withdrawal latency was timed, typically ranging between 2-4 seconds in wild-type animals. If the paw was not withdrawn within 20 seconds the assay was terminated. The test was repeated three times for each animal, with at least 20 minute intervals between repeats. Heat sensitivity was also assessed using the hot plate test [L. Urien et al., Sci Rep 7, 43493 (2017)]. To this end, mice were placed individually in a 20 cm high Plexiglas box on a metal surface set at 52, 55 or 58° C., and the latency to initiate a nociceptive response (licking, hind paws shaking, jumping) was monitored by videotape. Mice were removed from the plate immediately after a nociceptive response.
# importin α3 = assay: Importin α3 immunostaining intensity in DRG sections and cultured DRG neurons (line scan / nuclear intensity)
# Description: Histology—Lumbar sections of the spinal cord including Dorsal root ganglia (DRGs) were pre-fixed for 6 minutes before dissection of spinal cord and associated DRGs. Lumbar DRG (L4, unless otherwise indicated) and/or spinal cord were then fixed for six hours in 4% PFA in PBS, washed in PBS and equilibrated in 20% w/v sucrose in PBS prior to serial cryo-sectioning at a thickness of 10-20 μm. Following, one set for each DRG was processed for immunostaining. […]
# Fluorescence Intensity Analysis: Line scan analysis of fluorescence intensity was carried out on high-resolution confocal z-stack from DRG sections to determine fluorescence intensity of c-FOS and importin α3 over cell regions of interest in-vivo. […] The integrated density was calculated as the sum of the values of the pixels in both cytoplasmic and nuclear regions of interest determined on the basis of TuJ-1, CGRP, TRPV1 or DAPI staining, respectively.
# SNI mice = assay: CatWalk gait analysis (footprint width) in SNI mice; conditions: AAV9 shRNA, 60 days post-injury, vs shCtrl (FIG. 4D)
# Description: CatWalk gait analysis and training was carried out as previously described [Perry et al. Neuron 75, 294 (2012)]. Motivation was achieved by a combination of food restriction during the initial training and placing of palatable reward at runway ends. The test was repeated three times for each mouse. Data were collected and analyzed using the Catwalk Ethovision XT11 software (Noldus Information Technology, The Netherlands). The analyzed indices are reported for each animal as print area and print width.
substance,measurement,setting,value
"shα3: AAV9 expressing an importin α3 targeting shRNA (SEQ ID NO: 8), intrathecal injection (DNA GATCCGGCTTTGACAAACATTGCATGAAGCTTGATGCAATGTTTGTCAAAGCCTTTTTT)",response to noxious heat,mice; importin α3 knockout (−/−) mice after intrathecal AAV9 construct,No further alteration of the noxious heat response
same,response to noxious heat,"mice; importin α3 knockout (−/−) mice after intrathecal AAV9 construct, listed as anti-importin α3 shRNAs",no further effect on responses to noxious heat
same,response to noxious heat,"mice; wild type mice after intrathecal injection of AAV9 construct, vs control construct",reduced response of WT mice to noxious heat
same,response to noxious heat,"mice; wild type mice after intrathecal injection of AAV9 construct, vs control construct, listed as anti-importin α3 shRNAs",delayed paw withdrawal latency to noxious heat
same,impα3 nuclear intensity in cultured DRG neurons,importin α3; cultures of treated animals vs shCtrl (FIGS. 3G-H),significant reduction in nuclear levels
same,"impα3 signal, line scan intensity in DRG sections","importin α3; wild type mice one month following intrathecal injection, vs shCtrl (FIG. 3E)",reduction of impα3 signal
same,"footprint width / paw morphology and gait parameters, Catwalk",SNI mice,significant recovery by 60 days
same,"footprint width / paw morphology and gait parameters, Catwalk",SNI mice; listed as anti-importin α3 shRNA,regained unaltered paw morphology and gait parameters

# Reference: US20220133701A1, “METHODS OF TREATING PAIN” (Yeda Research and Development Co. Ltd., priority 2019, published 2022)
